Test systems include Malme-3M; HL-60; HCT-116; RXF 393; NCI-H226; PC-3; DU-145; OVCAR-3; NCI-H460; EKVX; HCC 2998; UACC-257; SNB-19; OVCAR-5; SN12C; MOLT-4; ACHN; SF-295.
Holding throughout (assay): growth of human tumour cells (NCI), 48 h

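How tested: cells in 96-well plates exposed to compound for 48 hours at five concentrations. The concentration for 50% growth inhibition is given as GI50.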 Active and inactive are the calls of the source. Cut-off read from the data, not from the text of the source: active = GI50 up to about 1.1 µM and inactive = higher.

With `C=C1CN(C(=O)c2cc3cc(OC)c(OC)c(OC)c3[nH]2)c2cc([N+](=O)[O-])ccc21`, the GI50 in the assay on Malme-3M was > 100 µM (inactive); in the assay with HL-60, > 100 µM (inactive); in the assay with HCT-116 it was > 100 µM (inactive); in the assay with RXF 393, 14.6 µM (inactive); with NCI-H226, > 100 µM (inactive); in the assay with PC-3, > 100 µM (inactive). The GI50 in the assay on DU-145, in the assay with OVCAR-3, with NCI-H460, in the assay with EKVX, with HCC 2998 and in the assay on UACC-257 was > 100 µM (inactive) in each case. Moreover, the GI50 was 45.8 µM (inactive) in the assay on SNB-19, > 100 µM (inactive) with OVCAR-5, > 100 µM (inactive) with SN12C and 69.3 µM (inactive) with MOLT-4.

As for `O=C(CNC(c1ccccc1)(c1ccccc1)c1ccccc1)NC1CCCCC1NC(=O)CNC(c1ccccc1)(c1ccccc1)c1ccccc1` (centres undefined), the GI50 in the assay on Malme-3M, in the assay with HL-60, in the assay with HCT-116, with PC-3, in the assay on DU-145 and with OVCAR-3 was > 100 µM (inactive) each time. Moreover, the GI50 was > 100 µM (inactive) with NCI-H460; > 100 µM (inactive) in the assay on ACHN; > 100 µM (inactive) with SF-295; 2.99 µM (inactive) in the assay with EKVX; > 100 µM (inactive) in the assay on HCC 2998; > 100 µM (inactive) with UACC-257. In addition, the GI50 in the assay on SNB-19, in the assay on OVCAR-5, in the assay on SN12C and with MOLT-4 was > 100 µM (inactive) in each case.

On to `Nc1nc(Cl)cc(NCC2(O)CCCC2)n1`, for which the GI50 with Malme-3M, with HL-60, in the assay on HCT-116, in the assay on RXF 393, with NCI-H226 and with PC-3 was > 100 µM (inactive) in each case. The GI50 with DU-145, in the assay with OVCAR-3, in the assay on NCI-H460, with ACHN, in the assay on SF-295 and with EKVX was > 100 µM (inactive) each time. The GI50 with HCC 2998, with UACC-257, in the assay with OVCAR-5, in the assay with SN12C and in the assay on MOLT-4 was > 100 µM (inactive) throughout.

For `C[C@@]1(OC(=O)c2cc([N+](=O)[O-])cc([N+](=O)[O-])c2)C[C@@H]2CCCC[C@@H]21`, the GI50 is 58.3 µM (inactive) in the assay on Malme-3M; > 100 µM (inactive) with HL-60; > 100 µM (inactive) in the assay on HCT-116; > 100 µM (inactive) in the assay with NCI-H226; > 100 µM (inactive) in the assay with PC-3; > 100 µM (inactive) in the assay on DU-145. Also, the GI50 in the assay with NCI-H460 was > 100 µM (inactive); in the assay with ACHN, > 100 µM (inactive); with SF-295, 66.4 µM (inactive); with EKVX it was > 100 µM (inactive); in the assay on HCC 2998 it was > 100 µM (inactive); in the assay with UACC-257, > 100 µM (inactive). Besides, the GI50 with SNB-19, in the assay with OVCAR-5, in the assay with SN12C and in the assay on MOLT-4 was > 100 µM (inactive) in each case.

As for `CC(=O)Nn1cnc(C(=N)C#N)c1N`, the GI50 in the assay with Malme-3M, in the assay with HL-60, in the assay on HCT-116, in the assay on NCI-H226, in the assay on PC-3 and in the assay with DU-145 was > 100 µM (inactive) in each case. The GI50 in the assay on OVCAR-3, with NCI-H460, in the assay with ACHN, in the assay with SF-295, in the assay with EKVX and in the assay with HCC 2998 was > 100 µM (inactive) in each case. Further, the GI50 in the assay with UACC-257, in the assay with SNB-19, in the assay with OVCAR-5, with SN12C and with MOLT-4 was > 100 µM (inactive) throughout.

Take `CCOC(=O)C(=O)/C(=C/n1c(=S)[nH]c2ccc([N+](=O)[O-])cc21)C(=O)OCC`: the GI50 in the assay on HL-60 is > 100 µM (inactive); with HCT-116, > 100 µM (inactive); in the assay with RXF 393, > 100 µM (inactive); in the assay with NCI-H226, 60 µM (inactive); in the assay with PC-3 it was > 100 µM (inactive); in the assay on DU-145, > 100 µM (inactive). In addition, the GI50 with OVCAR-3, with NCI-H460, in the assay with ACHN, with SF-295, in the assay with HCC 2998 and in the assay on UACC-257 was > 100 µM (inactive) in each case. Moreover, the GI50 with SNB-19, in the assay with OVCAR-5, in the assay with SN12C and in the assay with MOLT-4 was > 100 µM (inactive) each time.

For `CCOc1nnnc2[nH]cnc12`, the GI50 with Malme-3M, with HL-60, in the assay on HCT-116, in the assay on RXF 393, in the assay with NCI-H226 and with PC-3 was > 100 µM (inactive) each time. In addition, the GI50 in the assay on DU-145, in the assay with OVCAR-3, in the assay on NCI-H460, in the assay on SF-295, in the assay on EKVX and with HCC 2998 was > 100 µM (inactive) each time. Further, the GI50 in the assay with UACC-257, in the assay on OVCAR-5, in the assay on SN12C and with MOLT-4 was > 100 µM (inactive) each time.

Regarding `CC[C@]1(c2ccc3c(c2)OCO3)C=[N+]([O-])O[C@H](OC2CCCC2(c2ccccc2)c2ccccc2)[C@@H]1OC(C)=O` (some centres undefined), the GI50 is 2.87 µM (inactive) in the assay on HL-60; 1.78 µM (inactive) in the assay on HCT-116; 1.27 µM (inactive) in the assay on RXF 393; 4.3 µM (inactive) in the assay on NCI-H226; 3.24 µM (inactive) in the assay with PC-3; 2.1 µM (inactive) in the assay with DU-145. Further, the GI50 in the assay on OVCAR-3 was 1.81 µM (inactive); with NCI-H460 it was 2.24 µM (inactive); in the assay with ACHN it was 2.81 µM (inactive); in the assay on SF-295, 1.32 µM (inactive); in the assay with EKVX, 2.42 µM (inactive); with HCC 2998, 1.85 µM (inactive). Further, the GI50 in the assay with UACC-257 was 2.58 µM (inactive); with SNB-19, 3.22 µM (inactive); in the assay on OVCAR-5, 3.83 µM (inactive); with SN12C, 3.15 µM (inactive); in the assay on MOLT-4 it was 2 µM (inactive).

As to `CCS(=O)(=O)CCn1cnc2c1c(=O)n(C)c(=O)n2C`, the GI50 in the assay with HL-60, in the assay on HCT-116, in the assay on RXF 393, with NCI-H226, in the assay on PC-3 and in the assay on DU-145 was > 100 µM (inactive) each time. Further, the GI50 with OVCAR-3, in the assay with NCI-H460, in the assay with ACHN, with SF-295, in the assay on EKVX and in the assay on HCC 2998 was > 100 µM (inactive) throughout. Further, the GI50 with UACC-257, with SNB-19, in the assay on OVCAR-5, with SN12C and in the assay on MOLT-4 was > 100 µM (inactive) in each case.

Turning to `C/C=C1/CN2CCC34C(=C(C(=O)OC)C1CC23)Nc1ccc(O)cc14` (centres undefined), the GI50 with Malme-3M, with HL-60, in the assay on HCT-116, in the assay on NCI-H226, in the assay on PC-3 and in the assay on DU-145 was > 100 µM (inactive) throughout. Moreover, the GI50 with OVCAR-3 was > 100 µM (inactive); in the assay on NCI-H460 it was > 100 µM (inactive); in the assay on ACHN, > 100 µM (inactive); in the assay on SF-295, 77.8 µM (inactive); in the assay on EKVX, > 100 µM (inactive); in the assay with HCC 2998 it was > 100 µM (inactive). The GI50 in the assay with UACC-257, with SNB-19, in the assay on OVCAR-5, in the assay on SN12C and with MOLT-4 was > 100 µM (inactive) each time.

Take `CCOC(=O)C(Cc1ccc(N(CCCl)CCCl)cc1)NC(=O)C(Cc1ccccc1)NC=O` (centres undefined): the GI50 was 0.109 µM (active) in the assay with Malme-3M; 0.0638 µM (active) with HL-60; 0.286 µM (active) with HCT-116; 0.0614 µM (active) with RXF 393; 0.27 µM (active) with PC-3; 0.139 µM (active) with DU-145. The GI50 is 0.147 µM (active) in the assay with OVCAR-3; 0.261 µM (active) in the assay with NCI-H460; 0.00959 µM (active) with ACHN; 0.257 µM (active) in the assay with SF-295; 0.332 µM (active) with EKVX; 0.0186 µM (active) with HCC 2998. Also, the GI50 with UACC-257 is 0.24 µM (active); in the assay with SNB-19 it was 0.421 µM (active); in the assay with OVCAR-5 it was 0.337 µM (active); in the assay with SN12C, 0.156 µM (active); in the assay with MOLT-4, 0.0289 µM (active).

For the compound `O=S1(=O)c2ccccc2N(c2ccccc2)c2nnnn21`, the GI50 in the assay on HL-60 is 11.4 µM (inactive); in the assay on HCT-116 it was 26.4 µM (inactive); in the assay with RXF 393 it was 19.9 µM (inactive); in the assay with NCI-H226, 36.1 µM (inactive); in the assay on PC-3, 44.3 µM (inactive); in the assay with DU-145, 34.5 µM (inactive). In addition, the GI50 was 18.5 µM (inactive) in the assay with OVCAR-3; 31.3 µM (inactive) with NCI-H460; 29.4 µM (inactive) in the assay on ACHN; 47 µM (inactive) with SF-295; 33 µM (inactive) with EKVX; 17.7 µM (inactive) in the assay with HCC 2998. The GI50 in the assay on UACC-257 was 42.3 µM (inactive); with SNB-19, 23.3 µM (inactive); in the assay with OVCAR-5 it was 33.3 µM (inactive); in the assay on SN12C, 19.1 µM (inactive); in the assay on MOLT-4 it was 19.5 µM (inactive).

Source of the values: ChEMBL document CHEMBL1201862, “PubChem BioAssay data set” (2004).
